Results from the Kinase Knowledgebase extract (Sharma et al. 2016).

Target: CDK2 (human) (UniProt P24941)
Assay: Enzyme Assay
Details: for inhibition: concentration not given here

Row | SMILES | inhibition | Ki
1 | Nc1nc(NC2CCN(C(=O)c3ccc(-n4cccc4)nc3)CC2)sc1C(=O)c1c(F)cccc1F | 61% | 
2 | Nc1nc(NC2CCN(C(=O)C3CC3)CC2)sc1C(=O)c1c(F)cccc1F | -2% | 
3 | Nc1nc(NC2CCN(C(=O)c3c(F)cccc3F)CC2)sc1C(=O)c1c(F)cccc1F | -20% | 
4 | Cc1ccc(/C=C/C(=O)N2CCC(Nc3nc(N)c(C(=O)c4c(F)cccc4F)s3)CC2)c(C)c1 | 31% | 
5 | CC1(C)OC(=O)CC1C(=O)N1CCC(Nc2nc(N)c(C(=O)c3c(F)cccc3F)s2)CC1 (centres undefined) | 79% | 
6 | COC(=O)C(=O)N1CCC(Nc2nc(N)c(C(=O)c3c(F)cccc3F)s2)CC1 | -12% | 
7 | CC(CC(=O)N1CCC(Nc2nc(N)c(C(=O)c3c(F)cccc3F)s2)CC1)CC(C)(C)C (centres undefined) | 35% | 
8 | Nc1nc(NC2CCN(C(=O)COc3ccc([N+](=O)[O-])cc3)CC2)sc1C(=O)c1c(F)cccc1F | 60% | 
9 | COCCOC(=O)N1CCC(Nc2nc(N)c(C(=O)c3c(F)cccc3F)s2)CC1 | -11% | 
10 | COCCOCCOCC(=O)N1CCC(Nc2nc(N)c(C(=O)c3c(F)cccc3F)s2)CC1 | 38% | 
11 | CCCCOCC(=O)N1CCC(Nc2nc(N)c(C(=O)c3c(F)cccc3F)s2)CC1 | 79% | 
12 | CC(C)C(O)C(=O)N1CCC(Nc2nc(N)c(C(=O)c3c(F)cccc3F)s2)CC1 (centres undefined) | 27% | 
13 | Nc1nc(NC2CCN(C(=O)c3ccc(CO)cc3)CC2)sc1C(=O)c1c(F)cccc1F | 47% | 
14 | COc1cc(N)ccc1/C=C/C(=O)N1CCC(Nc2nc(N)c(C(=O)c3c(F)cccc3F)s2)CC1 | 56% | 
15 | CC(C)c1ccc(/C=C/C(=O)N2CCC(Nc3nc(N)c(C(=O)c4c(F)cccc4F)s3)CC2)cc1 | 52% | 
16 | Nc1nc(NC2CCN(C(=O)C(O)c3c(F)cccc3F)CC2)sc1C(=O)c1c(F)cccc1F (centres undefined) | 54% | 
17 | Nc1ccc(C(=O)NCC(=O)N2CCC(Nc3nc(N)c(C(=O)c4c(F)cccc4F)s3)CC2)cc1 | 65% | 
18 | Nc1nc(NC2CCN(C(=O)C(O)c3cccc(O)c3)CC2)sc1C(=O)c1c(F)cccc1F (centres undefined) | 47% | 
19 | CCCOc1ccc(C(=O)N2CCC(Nc3nc(N)c(C(=O)c4c(F)cccc4F)s3)CC2)cc1 | 77% | 
20 | CCCCOc1ccc(C(C)(C)CC)cc1S(=O)(=O)N1CCC(Nc2nc(N)c(C(=O)c3c(F)cccc3F)s2)CC1 | -30% | 
21 | CN(C)C(=O)CCC(=O)N1CCC(Nc2nc(N)c(C(=O)c3c(F)cccc3F)s2)CC1 | 49% | 
22 | CC(C)Oc1ccc(C(=O)N2CCC(Nc3nc(N)c(C(=O)c4c(F)cccc4F)s3)CC2)cc1 | 19% | 
23 | Cc1ccccc1C(=O)N1CCC(Nc2nc(N)c(C(=O)c3c(F)cccc3F)s2)CC1 | -11% | 

Row | SMILES | inhibition | Ki
24 | Cn1c(C(=O)N2CCC(Nc3nc(N)c(C(=O)c4c(F)cccc4F)s3)CC2)cc2ccccc21 | 61% | 
25 | Nc1nc(NC2CCN(C(=O)/C=C/c3cc(F)ccc3F)CC2)sc1C(=O)c1c(F)cccc1F | 81% | 
26 | C=CCCCC(=O)N1CCC(Nc2nc(N)c(C(=O)c3c(F)cccc3F)s2)CC1 | 39% | 
27 | COc1ccc2oc(C(=O)N3CCC(Nc4nc(N)c(C(=O)c5c(F)cccc5F)s4)CC3)cc2c1 | 61% | 
28 | CC(=O)SC[C@@H](C)C(=O)N1CCC(Nc2nc(N)c(C(=O)c3c(F)cccc3F)s2)CC1 | 46% | 
29 | Nc1nc(NC2CCN(C(=O)CCc3c[nH]c4ccccc34)CC2)sc1C(=O)c1c(F)cccc1F | 56% | 
30 | Nc1nc(NC2CCN(C(=O)COc3ccccc3)CC2)sc1C(=O)c1c(F)cccc1F | 59% | 
31 | Nc1nc(NC2CCN(C(=O)c3ccoc3)CC2)sc1C(=O)c1c(F)cccc1F | 34% | 
32 | Cc1ccc(OCC(=O)N2CCC(Nc3nc(N)c(C(=O)c4c(F)cccc4F)s3)CC2)c(C)c1 | 51% | 
33 | Nc1nc(NC2CCN(C(=O)C3COc4ccccc4O3)CC2)sc1C(=O)c1c(F)cccc1F (centres undefined) | 58% | 
34 | Nc1nc(NC2CCN(C(=O)OCc3ccccc3)CC2)sc1C(=O)c1c(F)cccc1F | -32% | 
35 | Nc1nc(NC2CCN(C(=O)c3ccc(F)c4ccccc34)CC2)sc1C(=O)c1c(F)cccc1F | 30% | 
36 | CC(C)CCC(=O)N1CCC(Nc2nc(N)c(C(=O)c3c(F)cccc3F)s2)CC1 | 27% | 
37 | COc1cc(SC)ccc1C(=O)N1CCC(Nc2nc(N)c(C(=O)c3c(F)cccc3F)s2)CC1 | 22% | 
38 | CCCCC(O)C(=O)N1CCC(Nc2nc(N)c(C(=O)c3c(F)cccc3F)s2)CC1 (centres undefined) | 16% | 
39 | Cc1cc(C)cc(CC(=O)N2CCC(Nc3nc(N)c(C(=O)c4c(F)cccc4F)s3)CC2)c1 | 75% | 
40 | Nc1nc(NC2CCN(C(=O)CC3CCCCC3)CC2)sc1C(=O)c1c(F)cccc1F | -5% | 
41 | CCC(C)(O)C(=O)N1CCC(Nc2nc(N)c(C(=O)c3c(F)cccc3F)s2)CC1 (centres undefined) | 25% | 
42 | Nc1nc(NC2CCN(C(=O)c3cc4cc(F)ccc4[nH]3)CC2)sc1C(=O)c1c(F)cccc1F | 36% | 
43 | Nc1nc(NC2CCN(C(=O)/C=C/c3ccccc3)CC2)sc1C(=O)c1c(F)cccc1F | 47% | 
44 | COc1cccc(CC(=O)N2CCC(Nc3nc(N)c(C(=O)c4c(F)cccc4F)s3)CC2)c1OC | 70% | 
45 | CCSc1ncccc1C(=O)N1CCC(Nc2nc(N)c(C(=O)c3c(F)cccc3F)s2)CC1 | 38% | 
46 | Nc1nc(NC2CCN(C(=O)CS/C=C\c3ccccc3)CC2)sc1C(=O)c1c(F)cccc1F | 59% | 

Row | SMILES | inhibition | Ki
47 | Nc1nc(NC2CCN(C(=O)CCCCc3ccccc3)CC2)sc1C(=O)c1c(F)cccc1F | 36% | 
48 | C[C@H]1CC[C@H](C(=O)N2CCC(Nc3nc(N)c(C(=O)c4c(F)cccc4F)s3)CC2)CC1 | 65% | 
49 | Nc1nc(NC2CCN(S(=O)(=O)c3ccc(Sc4ccncc4)cc3)CC2)sc1C(=O)c1c(F)cccc1F | -25% | 
50 | C[C@@H](C(=O)N1CCC(Nc2nc(N)c(C(=O)c3c(F)cccc3F)s2)CC1)c1ccccc1 | 21% | 
51 | Cc1cccc(Cl)c1C(=O)N1CCC(Nc2nc(N)c(C(=O)c3c(F)cccc3F)s2)CC1 | 47% | 
52 | COC(=O)CC(=O)N1CCC(Nc2nc(N)c(C(=O)c3c(F)cccc3F)s2)CC1 | -24% | 
53 | N#Cc1ccc(/C=C/C(=O)N2CCC(Nc3nc(N)c(C(=O)c4c(F)cccc4F)s3)CC2)cc1 | 41% | 
54 | CSCCC(O)C(=O)N1CCC(Nc2nc(N)c(C(=O)c3c(F)cccc3F)s2)CC1 (centres undefined) | 65% | 
55 | Cc1cc(C)c(C(=O)N2CCC(Nc3nc(N)c(C(=O)c4c(F)cccc4F)s3)CC2)cc1C | 44% | 
56 | COCCC(=O)N1CCC(Nc2nc(N)c(C(=O)c3c(F)cccc3F)s2)CC1 | 33% | 
57 | CC(=O)Oc1cccc(C(=O)N2CCC(Nc3nc(N)c(C(=O)c4c(F)cccc4F)s3)CC2)c1 | 56% | 
58 | Nc1nc(NC2CCN(C(=O)Cc3sc(O)nc3O)CC2)sc1C(=O)c1c(F)cccc1F | 58% | 
59 | Nc1nc(NC2CCN(C(=O)c3ccccc3OC(F)(F)F)CC2)sc1C(=O)c1c(F)cccc1F | -6% | 
60 | CN(C)[C@@H](Cc1ccccc1)C(=O)N1CCC(Nc2nc(N)c(C(=O)c3c(F)cccc3F)s2)CC1 | 10% | 
61 | CC(Oc1ccccc1)C(=O)N1CCC(Nc2nc(N)c(C(=O)c3c(F)cccc3F)s2)CC1 (centres undefined) | -15% | 
62 | COc1ccc(OCC(=O)N2CCC(Nc3nc(N)c(C(=O)c4c(F)cccc4F)s3)CC2)cc1 | 74% | 
63 | COc1ccccc1C(O)C(=O)N1CCC(Nc2nc(N)c(C(=O)c3c(F)cccc3F)s2)CC1 (centres undefined) | 27% | 
64 | Nc1nc(NC2CCN(C(=O)[C@H](O)C3CCCCC3)CC2)sc1C(=O)c1c(F)cccc1F | 25% | 
65 | CCCC[C@H]1CC[C@H](C(=O)N2CCC(Nc3nc(N)c(C(=O)c4c(F)cccc4F)s3)CC2)CC1 | 45% | 
66 | Nc1nc(NC2CCN(C(=O)Cc3cccc4ccccc34)CC2)sc1C(=O)c1c(F)cccc1F | 51% | 
67 | Nc1nc(NC2CCN(C(=O)Cc3ccccn3)CC2)sc1C(=O)c1c(F)cccc1F | 80% | 
68 | Nc1nc(NC2CCN(C(=O)Cc3cccs3)CC2)sc1C(=O)c1c(F)cccc1F | 73% | 
69 | C=CCSc1ncccc1C(=O)N1CCC(Nc2nc(N)c(C(=O)c3c(F)cccc3F)s2)CC1 | 48% | 

Row | SMILES | inhibition | Ki
70 | Nc1nc(NC2CCN(C(=O)c3ccccc3C(F)(F)F)CC2)sc1C(=O)c1c(F)cccc1F | -12% | 
71 | Nc1nc(NC2CCN(S(=O)(=O)c3ccc(CCN4CCC(c5ccccc5)C4)nc3)CC2)sc1C(=O)c1c(F)cccc1F (centres undefined) |  | 1.8 nM
72 | Nc1nc(NC2CCN(C(=O)/C=C/c3cccc(Cl)c3)CC2)sc1C(=O)c1c(F)cccc1F | 24% | 
73 | Cc1cc(C(=O)N2CCC(Nc3nc(N)c(C(=O)c4c(F)cccc4F)s3)CC2)n(C(C)(C)C)n1 | 59% | 
74 | CC(Oc1ccc(O)cc1)C(=O)N1CCC(Nc2nc(N)c(C(=O)c3c(F)cccc3F)s2)CC1 (centres undefined) | 18% | 
75 | Cc1ncccc1C(=O)N1CCC(Nc2nc(N)c(C(=O)c3c(F)cccc3F)s2)CC1 | 52% | 
76 | Nc1nc(NC2CCN(C(=O)c3csnn3)CC2)sc1C(=O)c1c(F)cccc1F | 68% | 
77 | COc1cscc1C(=O)N1CCC(Nc2nc(N)c(C(=O)c3c(F)cccc3F)s2)CC1 | 58% | 
78 | Nc1nc(NC2CCN(C(=O)Cc3ccccc3O)CC2)sc1C(=O)c1c(F)cccc1F | 48% | 
79 | COc1ccc(C(O)C(=O)N2CCC(Nc3nc(N)c(C(=O)c4c(F)cccc4F)s3)CC2)cc1O (centres undefined) | 58% | 
80 | Nc1nc(NC2CCN(C(=O)Cc3ccc4c(c3)OCO4)CC2)sc1C(=O)c1c(F)cccc1F | 39% | 
81 | Nc1nc(NC2CCN(C(=O)C3(c4ccccc4)CC3)CC2)sc1C(=O)c1c(F)cccc1F | -2% | 
82 | C=CCc1ccccc1OCC(=O)N1CCC(Nc2nc(N)c(C(=O)c3c(F)cccc3F)s2)CC1 | 76% | 
83 | CC1CCCCC1C(=O)N1CCC(Nc2nc(N)c(C(=O)c3c(F)cccc3F)s2)CC1 (centres undefined) | 43% | 
84 | COc1ccc(C(=O)N2CCC(Nc3nc(N)c(C(=O)c4c(F)cccc4F)s3)CC2)c(OC)n1 | 51% | 
85 | Cn1cccc1C(=O)N1CCC(Nc2nc(N)c(C(=O)c3c(F)cccc3F)s2)CC1 | 38% | 
86 | CN1CCC[C@H]1C(=O)N1CCC(Nc2nc(N)c(C(=O)c3c(F)cccc3F)s2)CC1 | 39% | 
87 | COC(=O)[C@H]1CC=CC[C@H]1C(=O)N1CCC(Nc2nc(N)c(C(=O)c3c(F)cccc3F)s2)CC1 | 22% | 
88 | CC(C)c1cc(C(C)C)c(S(=O)(=O)N2CCC(Nc3nc(N)c(C(=O)c4c(F)cccc4F)s3)CC2)c(C(C)C)c1 | -17% | 
89 | Cc1cnc(C(=O)N2CCC(Nc3nc(N)c(C(=O)c4c(F)cccc4F)s3)CC2)cn1 | 72% | 
